Test results published in ChEMBL document CHEMBL4393664, “2,4-Disubstituted quinazolines targeting breast cancer cells via EGFR-PI3K” (Eur J Med Chem, 2019).

Assays:
Type in all cases: functional, cell-based
MGC-803 = test: Cytotoxicity against human MGC803 cells assessed as reduction in cell viability after 72 hrs by MTT assay; settings: MGC-803, 72 h
PC-3 = test: Cytotoxicity against human PC3 cells assessed as reduction in cell viability after 72 hrs by MTT assay; settings: PC-3, 72 h
MDA-MB-231 = test: Cytotoxicity against human MDA-MB-231 cells assessed as reduction in cell viability after 72 hrs by MTT assay; settings: MDA-MB-231, 72 h
MCF7 = test: Cytotoxicity against human MCF7 cells assessed as reduction in cell viability after 72 hrs by MTT assay; settings: MCF7, 72 h
HGC-27 = test: Cytotoxicity against human HGC27 cells assessed as reduction in cell viability after 72 hrs by MTT assay; settings: HGC-27, 72 h

Fc1ccc(Nc2nc(SCc3ccc(C(F)(F)F)cc3)nc3ccccc23)cc1Cl
IC50 (MGC-803): > 50 µM | IC50 (PC-3): 18.6 µM | IC50 (MDA-MB-231): 14.5 µM | IC50 (MCF7): 23 µM | IC50 (HGC-27): 14.7 µM

FC(F)(F)c1ccc(CSc2nc(Nc3ccccc3C(F)(F)F)c3ccccc3n2)cc1
IC50 (MGC-803): > 50 µM | IC50 (PC-3): 34.8 µM | IC50 (MDA-MB-231): > 50 µM | IC50 (MCF7): > 50 µM | IC50 (HGC-27): > 50 µM

FC(F)(F)c1ccc(CSc2nc(Nc3cccc(Cl)c3)c3ccccc3n2)cc1
IC50 (MGC-803): 14.6 µM | IC50 (PC-3): 13.4 µM | IC50 (MDA-MB-231): 18 µM | IC50 (MCF7): 25.1 µM | IC50 (HGC-27): 19.9 µM

COc1ccc(Nc2nc(SCc3ccc(C(F)(F)F)cc3)nc3ccccc23)c(OC)c1
IC50 (MGC-803): > 50 µM | IC50 (PC-3): 32.5 µM | IC50 (MDA-MB-231): > 50 µM | IC50 (MCF7): > 50 µM | IC50 (HGC-27): > 50 µM

COc1cc(Nc2nc(SCc3ccc(C(F)(F)F)cc3)nc3ccccc23)cc(OC)c1OC
IC50 (MGC-803): 8.24 µM | IC50 (PC-3): 7.37 µM | IC50 (MDA-MB-231): > 50 µM | IC50 (MCF7): > 50 µM | IC50 (HGC-27): 14 µM

O=[N+]([O-])c1cccc(Nc2nc(SCc3ccc(C(F)(F)F)cc3)nc3ccccc23)c1
IC50 (MGC-803): > 50 µM | IC50 (PC-3): 13.5 µM | IC50 (MDA-MB-231): 31.5 µM | IC50 (MCF7): > 50 µM | IC50 (HGC-27): > 50 µM

CCCCCCCCNc1nc(SCc2ccc(C(F)(F)F)cc2)nc2ccccc12
IC50 (MGC-803): 12.6 µM | IC50 (PC-3): 10.5 µM | IC50 (MDA-MB-231): 22.3 µM | IC50 (MCF7): 26.1 µM | IC50 (HGC-27): 13.4 µM

Cc1ccc(Nc2nc(SCc3ccc(C(F)(F)F)cc3)nc3ccccc23)cc1
IC50 (MGC-803): 36.1 µM | IC50 (PC-3): 21.1 µM | IC50 (MDA-MB-231): > 50 µM | IC50 (MCF7): > 50 µM | IC50 (HGC-27): 34.6 µM

FC(F)(F)c1ccc(CSc2nc(N3CCCCC3)c3ccccc3n2)cc1
IC50 (MGC-803): 18.6 µM | IC50 (PC-3): 25.5 µM | IC50 (MDA-MB-231): 28.4 µM | IC50 (MCF7): > 50 µM | IC50 (HGC-27): > 50 µM

FC(F)(F)c1ccc(CSc2nc(Nc3cccc(Br)c3)c3ccccc3n2)cc1
IC50 (MGC-803): 23.7 µM | IC50 (PC-3): 8.68 µM | IC50 (MDA-MB-231): 22.1 µM | IC50 (MCF7): 25.6 µM | IC50 (HGC-27): 18.3 µM

Fc1ccc(Nc2nc(SCc3ccc(C(F)(F)F)cc3)nc3ccccc23)cc1
IC50 (MGC-803): 9.62 µM | IC50 (PC-3): 7.07 µM | IC50 (MDA-MB-231): 15 µM | IC50 (MCF7): 36.3 µM | IC50 (HGC-27): 19.5 µM

FC(F)(F)c1ccc(CSc2nc(Nc3ccccc3Cl)c3ccccc3n2)cc1
IC50 (MGC-803): > 50 µM | IC50 (PC-3): 20.4 µM | IC50 (MDA-MB-231): > 50 µM | IC50 (MCF7): > 50 µM | IC50 (HGC-27): > 50 µM

COc1ccccc1Nc1nc(SCc2ccc(C(F)(F)F)cc2)nc2ccccc12
IC50 (MGC-803): > 50 µM | IC50 (PC-3): 14.1 µM | IC50 (MDA-MB-231): > 50 µM | IC50 (MCF7): > 50 µM | IC50 (HGC-27): > 50 µM

FC(F)(F)c1ccc(CSc2nc(Nc3ccc(Cl)cc3)c3ccccc3n2)cc1
IC50 (MGC-803): 16.8 µM | IC50 (PC-3): 7.11 µM | IC50 (MDA-MB-231): 15.1 µM | IC50 (MCF7): 21.5 µM | IC50 (HGC-27): 14.1 µM

Cc1ccccc1Nc1nc(SCc2ccc(C(F)(F)F)cc2)nc2ccccc12
IC50 (MGC-803): 24.4 µM | IC50 (PC-3): 36.9 µM | IC50 (MDA-MB-231): 27.1 µM | IC50 (MCF7): 37.5 µM | IC50 (HGC-27): 27.5 µM

COc1ccc(Nc2nc(SCc3ccc(C(F)(F)F)cc3)nc3ccccc23)cc1
IC50 (MGC-803): 13.8 µM | IC50 (PC-3): 16.7 µM | IC50 (MDA-MB-231): 15.7 µM | IC50 (MCF7): 47.2 µM | IC50 (HGC-27): 23.5 µM

FC(F)(F)c1ccc(CSc2nc(Nc3cccc(C(F)(F)F)c3)c3ccccc3n2)cc1
IC50 (MGC-803): 15.1 µM | IC50 (PC-3): 12.9 µM | IC50 (MDA-MB-231): 11.1 µM | IC50 (MCF7): 15.3 µM | IC50 (HGC-27): 11.7 µM

O=[N+]([O-])c1ccc(Nc2nc(SCc3ccc(C(F)(F)F)cc3)nc3ccccc23)cc1
IC50 (MGC-803): 8.17 µM | IC50 (PC-3): 7.9 µM | IC50 (MDA-MB-231): 8.67 µM | IC50 (MCF7): 17.9 µM | IC50 (HGC-27): 16.6 µM

CCOc1ccccc1Nc1nc(SCc2ccc(C(F)(F)F)cc2)nc2ccccc12
IC50 (MGC-803): > 50 µM | IC50 (PC-3): 26.2 µM | IC50 (MDA-MB-231): > 50 µM | IC50 (MCF7): > 50 µM | IC50 (HGC-27): > 50 µM

CCCCCCCCCCCCNc1nc(SCc2ccc(C(F)(F)F)cc2)nc2ccccc12
IC50 (MGC-803): > 50 µM | IC50 (PC-3): 26 µM | IC50 (MDA-MB-231): > 50 µM | IC50 (MCF7): > 50 µM | IC50 (HGC-27): 38.7 µM

CCCCCCCCCCCCCCNc1nc(SCc2ccc(C(F)(F)F)cc2)nc2ccccc12
IC50 (MGC-803): > 50 µM | IC50 (PC-3): > 50 µM | IC50 (MDA-MB-231): > 50 µM | IC50 (MCF7): > 50 µM | IC50 (HGC-27): > 50 µM

FC(F)(F)c1ccc(CSc2nc(Nc3ccccc3)c3ccccc3n2)cc1
IC50 (MGC-803): 22.2 µM | IC50 (PC-3): 20 µM | IC50 (MDA-MB-231): 18.4 µM | IC50 (MCF7): 44 µM | IC50 (HGC-27): 26.4 µM

CCCCCCNc1nc(SCc2ccc(C(F)(F)F)cc2)nc2ccccc12
IC50 (MGC-803): 13.1 µM | IC50 (PC-3): 19 µM | IC50 (MDA-MB-231): 20.2 µM | IC50 (MCF7): 24.3 µM | IC50 (HGC-27): 23.9 µM

COc1cc(Nc2nc(SCc3ccc(C(F)(F)F)cc3)nc3ccccc23)cc(OC)c1
IC50 (MGC-803): 8.58 µM | IC50 (PC-3): > 50 µM | IC50 (MDA-MB-231): 16.1 µM | IC50 (MCF7): 6.99 µM | IC50 (HGC-27): > 50 µM

CCOc1ccc(Nc2nc(SCc3ccc(C(F)(F)F)cc3)nc3ccccc23)cc1
IC50 (MGC-803): 37 µM | IC50 (PC-3): 32 µM | IC50 (MDA-MB-231): 23 µM | IC50 (MCF7): > 50 µM | IC50 (HGC-27): 33 µM

COc1ccc(Nc2nc(SCc3ccc(C(F)(F)F)cc3)nc3ccccc23)cc1OC
IC50 (MGC-803): 16.3 µM | IC50 (PC-3): 14.1 µM | IC50 (MDA-MB-231): 18.9 µM | IC50 (MCF7): > 50 µM | IC50 (HGC-27): 17.9 µM
